Reference: paper PMC9388626, “STUB1 is an intracellular checkpoint for interferon gamma sensing” (Scientific Reports, 2022)

Tests used:
B16-F10 cells = assay: Flow cytometry, surface IFNGR1 on CRISPR-edited cells; assay type: cell-based, murine; settings: B16-F10, 24 h
Procedure: Parental, CRISPR-edited or biologic-overexpressed tumour cells were seeded in a cell density of 60,000 (B16-F10), 150,000 (CT26), 100,000 (A375), or 200,000 (A549) per well in 12-well plate filled with 0.8 ml culture media + 10% FBS. After overnight incubation, the culture media were replaced with 1 ml fresh media supplemented with 10% FBS and the designated concentration of the recombinant mouse IFNγ (R&D Systems, #485-MI-100) or recombinant human IFNγ (R&D Systems, #285-IF-100). The cells were stimulated with the cytokine for 24 h before they were harvested by trypsinization for flow cytometry, western blot, or qPCR analysis (6 h treatment).
Cells were dissociated from the wells with 0.25% trypsin (Gibco, 25200056). After rinsing with 0.5 ml PBS, each sample was stained with the LIVE/DEAD Fixable Aqua dead cell staining solution (Life Technologies, L34957) in 100 µl PBS (1:1000 dilution) for 15 min at 4 °C. After rinsing with 2 × 0.5 ml PBS, each sample was stained with the corresponding primary antibody-dye conjugates diluted in 100 µl Pharmingen stain buffer (BD Biosciences, #554657). After 1 h staining at 4 °C, the cells were rinsed with 2 × 2 ml Pharmingen stain buffer and fixed with 4.21% (w/w) formaldehyde (BD Biosciences, #554655). Cells were analyzed on LSRFortessa X-20 (BD Biosciences) with appropiate fluorescence compensation. The data were analyzed using FlowJo. Cells were gated based on FSC and SSC. Single cells were selected using FSC-A and FSC-H and viable cells were selected using LIVE/DEAD signal. Primary antibodies used were: H-2K^b/H-2D^b (FITC, Biolegend, #114606, 1:50 dilution), HLA-A,B,C (FITC, Biolegend, #311404, 1:100 dilution), mouse IFNGR1 (PE, Invitrogen, #12-1191-82, 1:50 dilution), human IFNGR1 (PE, Miltenyi, #130-125-851, 1:50 dilution), mouse IL1R1 (APC, Biolegend, #113509, 1:20 dilution), mouse IL6R (APC, Biolegend, #115812, 1:20 dilution), mouse IFNAR1 (APC, Biolegend, #127314, 1:20 dilution), and mouse GP130 (PE, Biolegend, #149404, 1:100 dilution).

DU145 cells [1] = assay: Growth inhibition, CellTiter-Glo 2.0 (ATP); assay type: cell-based, human; settings: DU145 (prostate), 10 ng ml^−1 each, 6 days
Procedure: (§1) Parental and CRISPR-edited tumour cells were seeded in a cell density of 1800 (DU145), 2000 (PC-3), or 10,000 (MCF7) per well in 96-well CellCarrier plate (PelkinElmer, #6005550) filled with 50 µl culture media + 10% FBS. After 20–24 h incubation, the cells were treated with 10 ng ml^−1 of recombinant human IFNγ (R&D Systems, 285-IF-100), 10 ng ml^−1 of recombinant human TNFα (R&D Systems, 210-TA-020/CF) or a combination of both, by adding an equal volume of the complete culture media containing the cytokines. After incubating for 6 days without media change, the CellTiter-Glo 2.0 (Promega, G9243) or CellTiter-Fluor (Promega, G6082) assay were performed according to manufacturer’ instructions. The luminescence or fluorescence (Ex: 380–400 nm, Em: 505 nm) were detected by Inifinte M1000 PRO (Tecan). For CellTiter-Fluor, triplicate wells without cells were included to determine background fluorescence and the signal average was used for background substraction.

PC-3 cells [2] = assay: Growth inhibition, CellTiter-Glo 2.0 (ATP); assay type: cell-based, human; settings: PC-3 (prostate), 10 ng ml^−1 each, 6 days
Procedure: as §1

DU145 cells [3] = assay: Growth inhibition, CellTiter-Fluor (live-cell protease activity); assay type: cell-based, human; set-up: scale not given here; settings: 10 ng ml-1 each, 6-day
Procedure: as §1

MCF7 cells = assay: as above; assay type: cell-based, human; set-up: scale not given here; settings: 10 ng ml-1 each, 6-day
Procedure: as §1

PC-3 cells [4] = assay: as above; assay type: cell-based, human; set-up: scale not given here; settings: 10 ng ml-1 each, 6-day
Procedure: as §1

## IFNγ
B16-F10 cells
  Cell surface IFNGR1 with increasing IFNγ: declined with increasing IFNγ concentration
DU145 cells [1]
  Growth inhibition of PTPN2- or STUB1-null cells: sensitized PTPN2- or STUB1-null prostate tumour cells to growth inhibition
PC-3 cells [2]
  Growth inhibition of PTPN2- or STUB1-null cells: sensitized PTPN2- or STUB1-null prostate tumour cells to growth inhibition
DU145 cells [3]; DU145 PTPN2 sgRNA, replicate 1
  FC in live-cell protease activity relative to parental cells: -0.09
DU145 cells [3]; DU145 PTPN2 sgRNA, replicate 2
  FC in live-cell protease activity relative to parental cells: -0.0242
DU145 cells [3]; DU145 PTPN2 sgRNA, replicate 3
  FC in live-cell protease activity relative to parental cells: 0.13
DU145 cells [3]; DU145 Parental, replicate 1
  FC in live-cell protease activity relative to parental cells: -0.028
DU145 cells [3]; DU145 Parental, replicate 2
  FC in live-cell protease activity relative to parental cells: -0.0441
DU145 cells [3]; DU145 Parental, replicate 3
  FC in live-cell protease activity relative to parental cells: 0.07
DU145 cells [3]; DU145 STUB1 sgRNA, replicate 1
  FC in live-cell protease activity relative to parental cells: -0.68
DU145 cells [3]; DU145 STUB1 sgRNA, replicate 2
  FC in live-cell protease activity relative to parental cells: -0.65
DU145 cells [3]; DU145 STUB1 sgRNA, replicate 3
  FC in live-cell protease activity relative to parental cells: -0.52
DU145 cells [3]; DU145 control sgRNA, replicate 1
  FC in live-cell protease activity relative to parental cells: 0.0364
DU145 cells [3]; DU145 control sgRNA, replicate 2
  FC in live-cell protease activity relative to parental cells: 0.13
DU145 cells [3]; DU145 control sgRNA, replicate 3
  FC in live-cell protease activity relative to parental cells: 0.0663
MCF7 cells; MCF7 PTPN2 sgRNA, replicate 1
  FC in live-cell protease activity relative to parental cells: -0.23
MCF7 cells; MCF7 PTPN2 sgRNA, replicate 2
  FC in live-cell protease activity relative to parental cells: -0.32
MCF7 cells; MCF7 PTPN2 sgRNA, replicate 3
  FC in live-cell protease activity relative to parental cells: -0.34
MCF7 cells; MCF7 Parental, replicate 1
  FC in live-cell protease activity relative to parental cells: 0.0179
MCF7 cells; MCF7 Parental, replicate 2
  FC in live-cell protease activity relative to parental cells: 0.0179
MCF7 cells; MCF7 Parental, replicate 3
  FC in live-cell protease activity relative to parental cells: -0.0365
MCF7 cells; MCF7 STUB1 sgRNA, replicate 1
  FC in live-cell protease activity relative to parental cells: -1.31
MCF7 cells; MCF7 STUB1 sgRNA, replicate 2
  FC in live-cell protease activity relative to parental cells: -1.18
MCF7 cells; MCF7 STUB1 sgRNA, replicate 3
  FC in live-cell protease activity relative to parental cells: -1.16
MCF7 cells; MCF7 control sgRNA, replicate 1
  FC in live-cell protease activity relative to parental cells: -0.0449
MCF7 cells; MCF7 control sgRNA, replicate 2
  FC in live-cell protease activity relative to parental cells: 0.05
MCF7 cells; MCF7 control sgRNA, replicate 3
  FC in live-cell protease activity relative to parental cells: 0.01
PC-3 cells [4]; PC-3 PTPN2 sgRNA, replicate 1
  FC in live-cell protease activity relative to parental cells: -0.90
PC-3 cells [4]; PC-3 PTPN2 sgRNA, replicate 2
  FC in live-cell protease activity relative to parental cells: -0.39
PC-3 cells [4]; PC-3 PTPN2 sgRNA, replicate 3
  FC in live-cell protease activity relative to parental cells: -0.44
PC-3 cells [4]; PC-3 Parental, replicate 1
  FC in live-cell protease activity relative to parental cells: 0.02
PC-3 cells [4]; PC-3 Parental, replicate 2
  FC in live-cell protease activity relative to parental cells: -0.11
PC-3 cells [4]; PC-3 Parental, replicate 3
  FC in live-cell protease activity relative to parental cells: 0.09
PC-3 cells [4]; PC-3 STUB1 sgRNA, replicate 1
  FC in live-cell protease activity relative to parental cells: -0.57
PC-3 cells [4]; PC-3 STUB1 sgRNA, replicate 2
  FC in live-cell protease activity relative to parental cells: -0.73
PC-3 cells [4]; PC-3 STUB1 sgRNA, replicate 3
  FC in live-cell protease activity relative to parental cells: -0.72
PC-3 cells [4]; PC-3 control sgRNA, replicate 1
  FC in live-cell protease activity relative to parental cells: 0.0759
PC-3 cells [4]; PC-3 control sgRNA, replicate 2
  FC in live-cell protease activity relative to parental cells: -0.0157
PC-3 cells [4]; PC-3 control sgRNA, replicate 3
  FC in live-cell protease activity relative to parental cells: -0.15
